Values of other authors in EP0077028B1, “Renin inhibitory peptides” (Merck & Co., Inc., priority 1981, dated 1987).

Test system: hog renin
Conditions: after the injection of hog renin into nephrectomized rats

pepstatin
blood pressure in vivo: reduce blood pressure
